Marks after values point to notes of the source that are not given here.
Columns and labels:
Gardnerella vaginalis = experiment: Disc diffusion susceptibility of Gardnerella vaginalis isolates; assay type: cell-based; conditions: of the 20 isolates of Gardnerella vaginalis; reference disc 5 mcg/disc
Description: Twenty isolates of each of Gardnerella vaginalis and Candida albicans were collected from human vaginosis cases. […] The disc diffusion method was used. For Gardnerella vaginalis, the Mueller-Hinton agar supplemented with 5% human serum medium was used.
The discs were incubated aerobically for 48 hrs at 35° C., the diameter of the discs inhibition zones were measured in millimeter, and interpreted by using the chart provided by Hudzicki, American Society for Microbiology, www.asm.org.2013, incorporated herein by reference in its entirety.

Trichomonas vaginalis = experiment: In vitro susceptibility of Trichomonas vaginalis isolates (flagellar motility); assay type: cell-based; conditions: 37° C.; for Mean % cells with motility after 48 hrs of aerobic contact: 500 cells/100 μL + 100 μL composition or metranidazole 25 μg/ml
Description: Fresh isolates of Trichomonas vaginalis were collected from 30-38 years old women. The procedure of vaginal smearing and reconstituting medium of the collected specimens were performed according to the procedure in Meingassner and Thumer, Antimicrobial agents and Chemotherapy, Vol 15, pp 254-257,1979, incorporated herein by reference in its entirety. Each isolate was adjusted to a viable count of 5,000 cells/ml, using a hemocytometer. A reconstituting diluent, Diamond's TYM supplemented with 10% horse serum, was used. The isolates were tested with the composition and a commonly used drug, metranidazole.
The number of cells in each well was 500 cells/100 μL of medium. […] Metranidazole was included as a reference at a concentration of 25 μg/ml. Metranidazole (100 μL) was also kept in contact with 500 cells/100 μL of the 20 isolates of Trichomonas vaginalis in the presence of oxygen for 48 hours at 37° C. Control triplicate wells were included in which the Trichomonas vaginalis cells of each of the 20 isolates were put in contact with equal volume of Diamond's TYM supplemented with 10% horse serum. The motility of flagella of the cells was observed after 48 hrs under an inverted-phase contrast microscope. The percentage of cells losing flagellar motility was determined.

In the case of `Cc1ncc([N+](=O)[O-])n1CCO` [Metranidazole, metranidazole], the “number of isolates resistant to the reference disc” value (Gardnerella vaginalis) is reported as “one”, the “Mean % cells with motility after 48 hrs of aerobic contact” value (Trichomonas vaginalis; isolate 1) is reported as 4.0% and the “Mean % cells with motility after 48 hrs of aerobic contact” value (Trichomonas vaginalis; isolate 2) is reported as 0.0%. For the same compound, the “Mean % cells with motility after 48 hrs of aerobic contact” value (Trichomonas vaginalis; isolate 3) was 1.5%, the “Mean % cells with motility after 48 hrs of aerobic contact” value (Trichomonas vaginalis; isolate 4) was 5.4% and the “Mean % cells with motility after 48 hrs of aerobic contact” value (Trichomonas vaginalis; isolate 5) was 7.4%. For the same compound, the “Mean % cells with motility after 48 hrs of aerobic contact” value (Trichomonas vaginalis; isolate 6) was 0.0%, the “Mean % cells with motility after 48 hrs of aerobic contact” value (Trichomonas vaginalis; isolate 7) was 9.3% and the “Mean % cells with motility after 48 hrs of aerobic contact” value (Trichomonas vaginalis; isolate 8) was 5.6%. For the same compound, the “Mean % cells with motility after 48 hrs of aerobic contact” value (Trichomonas vaginalis; isolate 9) was 8.4%, the “Mean % cells with motility after 48 hrs of aerobic contact” value (Trichomonas vaginalis; isolate 10) was 10.4% and the “Mean % cells with motility after 48 hrs of aerobic contact” value (Trichomonas vaginalis; isolate 11) was 0.0%. The “Mean % cells with motility after 48 hrs of aerobic contact” value (Trichomonas vaginalis; isolate 12) was 4.2%, the “Mean % cells with motility after 48 hrs of aerobic contact” value (Trichomonas vaginalis; isolate 13) was 0.0% and the “Mean % cells with motility after 48 hrs of aerobic contact” value (Trichomonas vaginalis; isolate 14) was 6.7%. For the same compound, the “Mean % cells with motility after 48 hrs of aerobic contact” value (Trichomonas vaginalis; isolate 15) was 8.5%, the “Mean % cells with motility after 48 hrs of aerobic contact” value (Trichomonas vaginalis; isolate 16) was 11.4% and the “Mean % cells with motility after 48 hrs of aerobic contact” value (Trichomonas vaginalis; isolate 17) was 7.4%. The “Mean % cells with motility after 48 hrs of aerobic contact” value (Trichomonas vaginalis; isolate 18) was 8.2%, the “Mean % cells with motility after 48 hrs of aerobic contact” value (Trichomonas vaginalis; isolate 19) was 9.7% and the “Mean % cells with motility after 48 hrs of aerobic contact” value (Trichomonas vaginalis; isolate 20) was 1.2%. The “Mean % cells with motility after 48 hrs of aerobic contact, Mean of Means” value (Trichomonas vaginalis; mean of means of the 20 isolates, composition or metranidazole 25 μg/ml) was 5.5^a %.

Reference: patent US10154958B1 (King Abdulaziz University, priority 2017, dated 2018)
